Where a SMILES comes first, the peptide text is derived from it. The star is where a group is joined. Cbz = O=C(OCc1ccccc1)*; CH2F = FC*
Tests used:
[1] = test system: U87MG, U251, and T98G cells; experiment: Autophagy: acidic vesicular organelle (AVO) staining; type: cell-based, human; conditions: RT 4 Gy, 24 hours
Text: As a marker of autophagy we evaluated the presence of AVOs after staining of cell cultures with LysoTracker® Red DND-99 kit (Life Technologies Italia, Monza, Italy) according to the manufacturer’s instructions. The intensity of the red fluorescence is proportional to the degree of acidity. The percentage of autophagic cells was quantified with the Tali® Image-Based Cytometer (Life Technologies) measuring fluorescence emission at 590 nm with fluorescence excitation at 577 nm. The results were expressed as the percentage of cell AVOs stained in controls and in treated cultures.

T98G xenografts = experiment: Subcutaneous xenograft model: tumor weight and time to progression; type: in vivo, female CD1-nu/nu mice; conditions: T98G xenografts; day 35; VSR 10 mg/kg q 5 d for 5 wk IV; TMZ 16 mg/kg 5 consecutive days; RT single 4 Gy
Procedure: (§1) Female CD1-nu/nu mice, at 6 weeks of age, were purchased from Charles River (Milan, Italy) under the guidelines established by our institution (University of L’Aquila, Medical School and Science and Technology School Board Regulations, complying with Italian government regulation n.116, January 27, 1992, for the use of laboratory animals). All mice received subcutaneous flank injections (2 each) of 1 × 10^6 U251, U87MG, and T98G cells representing models for MGMT-negative and MGMT-positive cells. Tumor growth was assessed biweekly by measuring tumor diameters with a Vernier caliper (length × width). Tumor weight was calculated according to the formula tumor weight (mg) = tumor volume (mm^3) = d2 × D/2, where d and D are the shortest and longest diameters, respectively. The effects of the treatments were assessed as previously described. At about 10 days after the tumor injection, 30 mice with tumor volumes of 0.5–0.8 cm^3 were randomly divided into 6 groups (5 mice per group with 2 tumors each): (1) control (vehicle); (2) vosaroxin (10 mg/kg every 5 days for 5 weeks intravenous [IV] injection into tail vein; (3) radiotherapy (RT; 4 Gy delivered in a single fraction); (4) vosaroxin in combination with RT; (5) temozolomide (16 mg/kg 5 consecutive days) and (6) temozolomide in combination with RT. Anesthetized tumor-bearing mice received focal irradiation. Irradiation was delivered using an x-ray linear accelerator at a dose rate of 200 cGy/min at room temperature. All mice were shielded with a specially designed lead apparatus to allow irradiation to the right hind limb. At the end of the study (35 days after the start of treatments), animals were sacrificed by carbon dioxide inhalation and tumors were then removed surgically. Half of the tumor was directly frozen in liquid nitrogen for protein analysis and the other half was fixed in paraformaldehyde overnight for immunohistochemical analyses.
(§2) The following parameters were used to quantify the antitumor effects of different treatments as previously described: tumor volume, measured throughout the experiment; tumor weight, measured at the end of the experiment; tumor progression, defined as an increase of greater than 50% of tumor volume with respect to baseline; and time to progression (TTP), defined as the time until tumor progression was observed from baseline. Tumor size was measured with calipers and the TTP of a single tumor was calculated. TTP data were used to generate Kaplan-Meier curves for progression. This method of analysis was described previously, and may reduce both inter-subject variability resulting from differences in engraftment efficacy as well as intra-subject variability in response.
(§3) In vivo drug combination studies were evaluated using CalcuSyn. For CI calculations of dual administration, the values of % cell kill (%CK) for a fixed tumor volume were determined by the log CK (LCK). LCK was calculated as LCK = (T − C) / (3.32 × Td), where Td represented the mean control group doubling time required to reach a fixed tumor volume, expressed in days. T and C were the mean times in days required to reach the same fixed tumor volume in the treated group and the control group, respectively. CK was calculated as %CK = [1 − (1 − 10LCK)] × 100. Tumor growth delay (TGD) was calculated as %TGD = [(T − C) / C] × 100, where T and C were the same values as those reported by Bruzzese et al..

U251 xenografts = experiment: as above; type: in vivo, female CD1-nu/nu mice; conditions: U251 xenografts; day 35; VSR 10 mg/kg q 5 d for 5 wk IV; TMZ 16 mg/kg 5 consecutive days; RT single 4 Gy
Procedure: as §1, §2, §3

U87MG xenografts = experiment: as above; type: in vivo, female CD1-nu/nu mice; conditions: U87MG xenografts; day 35; VSR 10 mg/kg q 5 d for 5 wk IV; TMZ 16 mg/kg 5 consecutive days; RT single 4 Gy
Procedure: as §1, §2, §3

[2] = test system: luciferase-transfected U251 cells; experiment: Orthotopic intra-brain model (DFS, OS)

COC(=O)C[C@H](NC(=O)[C@H](C)NC(=O)[C@@H](NC(=O)OCc1ccccc1)C(C)C)C(=O)CF [z-Val-Ala-Asp(Ome)-fluoromethyl ketone] (Cbz-Val-Ala-Asp(OMe)-CH2F)
RT-induced AVO staining ([1]; 10 μM): further increased

Cn1cnc(N)c2ncnc1-2 [3-methyladenine]
RT-induced AVO staining ([1]; 5 μM): reduced

Cn1nnc2c(C(N)=O)ncn2c1=O [temozolomide]
final tumor weight reduction compared with vehicle controls (T98G xenografts): 25% | final tumor weight reduction compared with vehicle controls (U251 xenografts): 54% | final tumor weight reduction compared with vehicle controls (U87MG xenografts): 53% | Disease-free Survival HR (95% CI) ([2]; TMZ vs VSR): 2.0 (0.9–5.5) | Overall Survival HR (95% CI) ([2]; TMZ vs VSR): 3.0 (1.0–8.8) | mean time of recurrence (DFS) ± SE ([2]; orthotopic U251-luciferase, treated for 35 days starting 5 days after cell injection): 68.3 ± 5.4 days

Reference: publication PMC5444710, “Enhancement of radiosensitivity by the novel anticancer quinolone derivative vosaroxin in preclinical glioblastoma models” (Oncotarget, 2017)
